Test results as given in patent publication US5464826A, “Method of treating tumors in mammals with 2',2'-difluoronucleosides” (Eli Lilly and Company, priority 1994, dated 1995).

Key:
[1] = system: X5563 plasma cell myeloma; test: X5563 plasma cell myeloma tumor model; format: in vivo, mice (C3H); conditions: IP, Days 1,5,9
Description: X5563 Myeloma--the tumor is maintained in C3H mice.
The tumor was removed from passage animals and minced into 1 to 3 mm square fragments using sterile techniques. Tumor pieces were checked for sterility using both Antibiotic Medium 1 and Brain Heart Infusion (Difco; Detroit, Mich.). Recipient mice were shaved and tumor pieces were implanted subcutaneously in the axillary region by trocar. Drug therapy on the appropriate schedule was initiated on the day after tumor implant. The compound was dissolved in saline for all experiments. All animals were weighed at the beginning and end of drug treatment. Food and water were provided ad libitum. On days 10 to 12, two dimensional measurements (width and length) of all tumors were taken using vernier calipers. Tumor weights were calculated from these measurements using the following formula:
Tumor Weight (mg)=Tumor Length (mm)×Tumor Width (mm)^2 /2
For all data, the tumor weight was rounded to the nearest tenth of a gram for analysis. No group is included in the analysis for therapeutic activity in which deaths attributable to drug toxicity exceeded 30 percent of the treated group.
In Table 3 which follows, column 1 gives the example number of the compound tested; column 2 provides the tumor system; column 3, the dose level; column 4, the route administered; column 5, the dosage schedule; column 6, the percent inhibition of the tumor; and column 7, the toxic deaths observed prior to completion of the study.

[2] = system: L1210V lymphocytic leukemia; test: L1210V Lymphocytic Leukemia Tumor System; format: in vivo, mice; conditions: for Indefinite Survivors: 45 day survivors; for Toxic Deaths: deaths/mice in group
Protocol: The study testing the efficacy of these compounds against L1210V leukemia was initiated by an IP inoculation of 1×10^6 cells. Treatment was begun 24 hours after inoculation. The response to therapy was determined by comparing the mean life span of the ten treated animals to that of the ten control animals; prolongation of life in the treated animals beyond that of controls is expressed as a percentage. In the Table, column 1 gives the example number of the compound tested; column 2, the experiment number; column 3, the dose level of the compound in mg/kg; column 4, the route of administration; column 5, the dosage schedule, that is, the days on which the compound was administered to the mice; column 6, the average increase in life span of the treated mice as compared to the control mice; column 7, the toxic deaths over the number of mice in each group; and column 8, the indefinite survivors, that is, the number of 45 day survivors in each group.

[3] = Experiment 1, 1.25 mg/kg, IP, Days 1,5,9
[4] = Experiment 1, 2.5 mg/kg, IP, Days 1,5,9
[5] = Experiment 1, 5.0 mg/kg, IP, Days 1,5,9
[6] = Experiment 1, 10.0 mg/kg, IP, Days 1,5,9
[7] = Experiment 1, 20.0 mg/kg, IP, Days 1,5,9
[8] = Experiment 2, 0.5 mg/kg, IP, Daily for 10 Days
[9] = Experiment 2, 1.0 mg/kg, IP, Daily for 10 Days
[10] = Experiment 2, 2.0 mg/kg, IP, Daily for 10 Days
[11] = Experiment 3, 25.0 mg/kg, IP, Day 1 only
[12] = Experiment 3, 50.0 mg/kg, IP, Day 1 only
[13] = Experiment 3, 100.0 mg/kg, IP, Day 1 only
[14] = Experiment 3, 200.0 mg/kg, IP, Day 1 only
[15] = Experiment 4, 0.5 mg/kg, PO, Daily for 10 days
[16] = Experiment 4, 1.0 mg/kg, PO, Daily for 10 days
[17] = Experiment 4, 2.0 mg/kg, PO, Daily for 10 days
[18] = Experiment 4, 4.0 mg/kg, PO, Daily for 10 days
[19] = Experiment 5, 0.5 mg/kg, IP, Daily for 9 days
[20] = Experiment 5, 1.0 mg/kg, IP, Daily for 9 days
[21] = Experiment 5, 2.0 mg/kg, IP, Daily for 9 days
[22] = Experiment 5, 4.0 mg/kg, IP, Daily for 9 days

In the case of Nc1ccn(C2O[C@H](CO)[C@@H](O)C2(F)F)c(=O)n1 (stereo partly shown) [Example 1, 1-(4-Amino-2-oxo-1H-pyrimidin-1-yl)-2-desoxy-2,2-difluororibose], the “Percent Inhibition of Tumor” value ([1]; 1.25 mg/kg) is reported as 11%, the “Toxic Deaths” value ([1]; 1.25 mg/kg) is reported as 1/10 and the “Percent Inhibition of Tumor” value ([1]; 2.5 mg/kg) is reported as 52%. For the same compound, the “Toxic Deaths” value ([1]; 2.5 mg/kg) was 1/10, the “Percent Inhibition of Tumor” value ([1]; 5.0 mg/kg) was 89% and the “Toxic Deaths” value ([1]; 5.0 mg/kg) was 0/10. For the same compound, the “Percent Inhibition of Tumor” value ([1]; 10.0 mg/kg) was 98%, the “Toxic Deaths” value ([1]; 10.0 mg/kg) was 0/10 and the “Percent Inhibition of Tumor” value ([1]; 20.0 mg/kg) was 100%. The “Toxic Deaths” value ([1]; 20.0 mg/kg) was 0/10, the “Percent Increase Life Span” value [2, 3] was 50% and the “Indefinite Survivors” value [2, 3] was 0. For the same compound, the “Toxic Deaths” value [2, 3] was 0/10, the “Percent Increase Life Span” value [2, 4] was 60% and the “Indefinite Survivors” value [2, 4] was 0. For the same compound, the “Toxic Deaths” value [2, 4] was 0/10, the “Percent Increase Life Span” value [2, 5] was 66% and the “Indefinite Survivors” value [2, 5] was 0. For the same compound, the “Toxic Deaths” value [2, 5] was 0/10, the “Percent Increase Life Span” value [2, 6] was 66% and the “Indefinite Survivors” value [2, 6] was 0. The “Toxic Deaths” value [2, 6] was 1/10, the “Percent Increase Life Span” value [2, 7] was 60% and the “Indefinite Survivors” value [2, 7] was 0. For the same compound, the “Toxic Deaths” value [2, 7] was 0/10, the “Percent Increase Life Span” value [2, 8] was 13% and the “Indefinite Survivors” value [2, 8] was 0. For the same compound, the “Toxic Deaths” value [2, 8] was 0/10, the “Percent Increase Life Span” value [2, 9] was 0% and the “Indefinite Survivors” value [2, 9] was 0. For the same compound, the “Toxic Deaths” value [2, 9] was 0/10, the “Percent Increase Life Span” value [2, 10] was 0% and the “Indefinite Survivors” value [2, 10] was 0. The “Toxic Deaths” value [2, 10] was 0/10, the “Percent Increase Life Span” value [2, 11] was 23% and the “Indefinite Survivors” value [2, 11] was 0. The “Toxic Deaths” value [2, 11] was 0/10, the “Percent Increase Life Span” value [2, 12] was 30% and the “Indefinite Survivors” value [2, 12] was 0. For the same compound, the “Toxic Deaths” value [2, 12] was 0/10, the “Percent Increase Life Span” value [2, 13] was 26% and the “Indefinite Survivors” value [2, 13] was 0. The “Toxic Deaths” value [2, 13] was 0/10, the “Percent Increase Life Span” value [2, 14] was 34% and the “Indefinite Survivors” value [2, 14] was 0. For the same compound, the “Toxic Deaths” value [2, 14] was 0/10, the “Percent Increase Life Span” value [2, 15] was 8% and the “Indefinite Survivors” value [2, 15] was 0. The “Toxic Deaths” value [2, 15] was 0/10, the “Percent Increase Life Span” value [2, 16] was 15% and the “Indefinite Survivors” value [2, 16] was 0. For the same compound, the “Toxic Deaths” value [2, 16] was 0/10, the “Percent Increase Life Span” value [2, 17] was 18% and the “Indefinite Survivors” value [2, 17] was 0. The “Toxic Deaths” value [2, 17] was 1/10, the “Percent Increase Life Span” value [2, 18] was 2% and the “Indefinite Survivors” value [2, 18] was 0. The “Toxic Deaths” value [2, 18] was 4/10, the “Percent Increase Life Span” value [2, 19] was 74% and the “Indefinite Survivors” value [2, 19] was 0. The “Toxic Deaths” value [2, 19] was 0/10, the “Percent Increase Life Span” value [2, 20] was 104% and the “Indefinite Survivors” value [2, 20] was 0. For the same compound, the “Toxic Deaths” value [2, 20] was 0/10, the “Percent Increase Life Span” value [2, 21] was 136% and the “Indefinite Survivors” value [2, 21] was 0. The “Toxic Deaths” value [2, 21] was 0/10, the “Percent Increase Life Span” value [2, 22] was 44% and the “Indefinite Survivors” value [2, 22] was 0. For the same compound, the “Toxic Deaths” value [2, 22] was 0/10.
